Assays:
[1] = molecular target: BRD4-BD2 (Homo sapiens (Human), UniProt O60885); test: BRD4-BD2 AlphaScreen assay; assay type: binding; details: H4Ac4 peptide, read-out: BRD4 BD-2 enzyme IC50
Procedure: (§1) BRD4-BD1 and BRD4-BD2 assays were conducted in white 384-well polystyrene plate in a final volume of 20 μL for BD1 and 40 μL for BD2. Inhibitors were first serially diluted in DMSO and added to the plate wells before the addition of other reaction components. […] After plate sealing, the plate was incubated in the dark at room temperature for 75 min. before reading on a PHERAstar FS plate reader (BMG Labtech). IC50 determination was performed by fitting the curve of percent control activity versus the log of the inhibitor concentration using the GraphPad Prism 5.0 software.

[2] = molecular target: BRD4-BD1 (Homo sapiens (Human), UniProt O60885); test: BRD4-BD1 AlphaScreen assay; assay type: binding; details: H4Ac4 peptide, read-out: BRD4 BD-1 enzyme IC50
Procedure: as §1

Row | SMILES | IC50 [1] | IC50 [2]
1 | Cc1noc(C)c1-c1ccc2nc(N3CCC(N(C)C(=O)C(C)(C)C)CC3)n3c2c1OC[C@@H]3c1ccccn1 [Example 18, N-{1-[(4S)-7-(3,5-dimethylisoxazol-4-yl)-4-pyridin-2-yl-4,5-dihydroimidazo[1,5,4-de][1,4]benzoxazin-2-yl]piperidin-4-yl}-N,2,2-trimethylpropanamide] | < 25 nM | < 25 nM
2 | CCC(=O)N1CCN(c2nc3ccc(-c4c(C)noc4C)c4c3n2[C@@H](c2ccccn2)CO4)C[C@@H]1C [Example 8, (4S)-7-(3,5-dimethylisoxazol-4-yl)-2-[(3S)-3-methyl-4-propionylpiperazin-1-yl]-4-pyridin-2-yl-4,5-dihydroimidazo[1,5,4-de][1,4]benzoxazine] | < 25 nM | < 25 nM
3 | Cc1noc(C)c1-c1ccc2nc(N3CCC(N(C)C(=O)C4CC4)CC3)n3c2c1OC[C@@H]3c1ccccn1 [Example 19, N-{1-[(4S)-7-(3,5-dimethylisoxazol-4-yl)-4-pyridin-2-yl-4,5-dihydroimidazo[1,5,4-de][1,4]benzoxazin-2-yl]piperidin-4-yl}-N-methylcyclopropanecarboxamide] | < 25 nM | < 25 nM
4 | CCCC(=O)NC1CCN(c2nc3ccc(-c4c(C)noc4C)c4c3n2[C@@H](c2ccccn2)CO4)CC1 [Example 10, N-{1-[(4S)-7-(3,5-dimethylisoxazol-4-yl)-4-pyridin-2-yl-4,5-dihydroimidazo[1,5,4-de][1,4]benzoxazin-2-yl]piperidin-4-yl}butanamide] | < 25 nM | < 25 nM
5 | Cc1noc(C)c1-c1ccc2nc(N3CCN(C(=O)C(C)C)CC3)n3c2c1OC[C@@H]3c1ccccn1 [Example 1, (4S)-7-(3,5-Dimethylisoxazol-4-yl)-2-(4-isobutyrylpiperazin-1-yl)-4-pyridin-2-yl-4,5-dihydroimidazo[1,5,4-de][1,4]benzoxazine] | < 25 nM | < 25 nM
6 | COCC(=O)N1CCN(c2nc3ccc(-c4c(C)noc4C)c4c3n2[C@@H](c2ccccn2)CO4)CC1 [Example 29, (4S)-7-(3,5-dimethylisoxazol-4-yl)-2-[4-(methoxyacetyl)piperazin-1-yl]-4-pyridin-2-yl-4,5-dihydroimidazo[1,5,4-de][1,4]benzoxazine] | < 25 nM | < 25 nM
7 | Cc1noc(C)c1-c1ccc2nc(N3CCC(N(C)C(=O)C(C)C)CC3)n3c2c1OC[C@@H]3c1ccccn1 [Example 17, N-{1-[(4S)-7-(3,5-dimethylisoxazol-4-yl)-4-pyridin-2-yl-4,5-dihydroimidazo[1,5,4-de][1,4]benzoxazin-2-yl]piperidin-4-yl}-N,2-dimethylpropanamide] | < 25 nM | < 25 nM
8 | CC(=O)N1CC2CC1CN2c1nc2ccc(-c3c(C)noc3C)c3c2n1[C@@H](c1ccccn1)CO3 (stereo partly drawn) [Example 4, (4S)-2-(5-acetyl-2,5-diazabicyclo[2.2.1]hept-2-yl)-7-(3,5-dimethylisoxazol-4-yl)-4-pyridin-2-yl-4,5-dihydroimidazo[1,5,4-de][1,4]benzoxazine] | < 25 nM | < 25 nM
9 | Cc1noc(C)c1-c1ccc2nc(N3CCN(C(=O)C4CCC4)CC3)n3c2c1OC[C@@H]3c1ccccn1 [Example 28, (4S)-2-[4-(cyclobutylcarbonyl)piperazin-1-yl]-7-(3,5-dimethylisoxazol-4-yl)-4-pyridin-2-yl-4,5-dihydroimidazo[1,5,4-de][1,4]benzoxazine] | < 25 nM | < 25 nM
10 | Cc1noc(C)c1-c1ccc2nc(N3CCC(N(C)C(=O)C4CCC4)CC3)n3c2c1OC[C@@H]3c1ccccn1 [Example 20, N-{1-[(4S)-7-(3,5-dimethylisoxazol-4-yl)-4-pyridin-2-yl-4,5-dihydroimidazo[1,5,4-de][1,4]benzoxazin-2-yl]piperidin-4-yl}-N-methylcyclobutanecarboxamide] | < 25 nM | < 25 nM
11 | CC(=O)N1CCN(c2nc3ccc(-c4c(C)noc4C)c4c3n2[C@@H](c2ccccn2)CO4)[C@@H](C)C1 [Example 3, (4S)-2-[(2S)-4-acetyl-2-methylpiperazin-1-yl]-7-(3,5-dimethylisoxazol-4-yl)-4-pyridin-2-yl-4,5-dihydroimidazo[1,5,4-de][1,4] benzoxazine] | < 25 nM | 25 to 100 nM
12 | Cc1noc(C)c1-c1ccc2nc(N3CCN(C(=O)C(C)C)[C@@H](C)C3)n3c2c1OC[C@@H]3c1ccccn1 [Example 9, (4S)-7-(3,5-dimethylisoxazol-4-yl)-2-[(3S)-4-isobutyryl-3-methylpiperazin-1-yl]-4-pyridin-2-yl-4,5-dihydroimidazo[1,5,4-de][1,4]benzoxazine] | < 25 nM | < 25 nM
13 | CCC(=O)N(C)C1CCN(c2nc3ccc(-c4c(C)noc4C)c4c3n2[C@@H](c2ccccn2)CO4)CC1 [Example 15, N-{1-[(4S)-7-(3,5-dimethylisoxazol-4-yl)-4-pyridin-2-yl-4,5-dihydroimidazo[1,5,4-de][1,4]benzoxazin-2-yl]piperidin-4-yl}-N-methylpropanamide] | < 25 nM | < 25 nM
14 | Cc1noc(C)c1-c1ccc2nc(N3CCC(NC(=O)C4CCC4)CC3)n3c2c1OC[C@@H]3c1ccccn1 [Example 13, N-{1-[(4S)-7-(3,5-dimethylisoxazol-4-yl)-4-pyridin-2-yl-4,5-dihydroimidazo[1,5,4-de][1,4]benzoxazin-2-yl]piperidin-4-yl}cyclobutanecarboxamide] | < 25 nM | < 25 nM
15 | Cc1noc(C)c1-c1ccc2nc(N3CCN(C(=O)C(C)(C)C)CC3)n3c2c1OC[C@@H]3c1ccccn1 [Example 26, (4S)-7-(3,5-dimethylisoxazol-4-yl)-2-[4-(2,2-dimethylpropanoyl)piperazin-1-yl]-4-pyridin-2-yl-4,5-dihydroimidazo[1,5,4-de][1,4]benzoxazine] | < 25 nM | < 25 nM
16 | Cc1noc(C)c1-c1ccc2nc(N3CCC(N(C)S(=O)(=O)C4CC4)CC3)n3c2c1OC[C@@H]3c1ccccn1 [Example 24, N-{1-[(4S)-7-(3,5-dimethylisoxazol-4-yl)-4-pyridin-2-yl-4,5-dihydroimidazo[1,5,4-de][1,4]benzoxazin-2-yl]piperidin-4-yl}-N-methylcyclopropanesulfonamide] | < 25 nM | < 25 nM
17 | CC(=O)NC1(C)CCN(c2nc3ccc(-c4c(C)noc4C)c4c3n2[C@@H](c2ccccn2)CO4)CC1 [Example 5, N-{1-[(4S)-7-(3,5-dimethylisoxazol-4-yl)-4-pyridin-2-yl-4,5-dihydroimidazo[1,5,4-de][1,4]benzoxazin-2-yl]-4-methylpiperidin-4-yl}acetamide] | < 25 nM | 25 to 100 nM
18 | Cc1noc(C)c1-c1ccc2nc(N3CCC(NC(=O)C(C)(C)C)CC3)n3c2c1OC[C@@H]3c1ccccn1 [Example 11, N-{1-[(4S)-7-(3,5-dimethylisoxazol-4-yl)-4-pyridin-2-yl-4,5-dihydroimidazo[1,5,4-de][1,4]benzoxazin-2-yl]piperidin-4-yl}-2,2-dimethylpropanamide] | < 25 nM | < 25 nM
19 | CC(=O)N1C[C@@H](C)N(c2nc3ccc(-c4c(C)noc4C)c4c3n2[C@@H](c2ccccn2)CO4)[C@@H](C)C1 (atropisomer, axis not shown) [Example 2, (4S)-2-[(2R,6S)-4-Acetyl-2,6-dimethylpiperazin-1-yl]-7-(3,5-dimethylisoxazol-4-yl)-4-pyridin-2-yl-4,5-dihydroimidazo[1,5,4-de][1,4]benzoxazine] | < 25 nM | < 25 nM
20 | CCCC(=O)N(C)C1CCN(c2nc3ccc(-c4c(C)noc4C)c4c3n2[C@@H](c2ccccn2)CO4)CC1 [Example 16, N-{1-[(4S)-7-(3,5-dimethylisoxazol-4-yl)-4-pyridin-2-yl-4,5-dihydroimidazo[1,5,4-de][1,4]benzoxazin-2-yl]piperidin-4-yl}-N-methylbutanamide] | < 25 nM | < 25 nM
21 | CCS(=O)(=O)N(C)C1CCN(c2nc3ccc(-c4c(C)noc4C)c4c3n2[C@@H](c2ccccn2)CO4)CC1 [Example 23, N-{1-[(4S)-7-(3,5-dimethylisoxazol-4-yl)-4-pyridin-2-yl-4,5-dihydroimidazo[1,5,4-de][1,4]benzoxazin-2-yl]piperidin-4-yl}-N-methylethanesulfonamide] | < 25 nM | < 25 nM
22 | CCCC(=O)N1CCN(c2nc3ccc(-c4c(C)noc4C)c4c3n2[C@@H](c2ccccn2)CO4)CC1 [Example 25, (4S)-2-(4-butyrylpiperazin-1-yl)-7-(3,5-dimethylisoxazol-4-yl)-4-pyridin-2-yl-4,5-dihydroimidazo[1,5,4-de][1,4]benzoxazine] | < 25 nM | < 25 nM
